Here are results for one substance from patent US20260216362A1, “ANTI-BDCA2 ANTIBODY-DRUG CONJUGATE AND USE THEREOF” (DUALITY BIOLOGICS (SHANGHAI) CO., LTD., priority 2022, published 2026).

In test [1] the test system is human peripheral blood mononuclear cells. Briefly: Inhibition of CpG-A-induced TNF-α production from human peripheral blood mononuclear cells by BDCA2-ADC. In kind it is cell-based. Particulars: 0.5 μM CpG-A, 24 h. How it is done: (§1) The inhibitory effects of the antibody-drug conjugate molecules of the present application on the production from peripheral blood mononuclear cells were detected. Peripheral blood mononuclear cells produce a large number of cytokines after the stimulation of the TLR9 agonist CpG-A. The peripheral blood mononuclear cells were treated in vitro with the BDCA2 antibody-drug conjugate at different concentrations, and IFNα and TNFα produced by the peripheral blood mononuclear cells were quantitatively detected after the stimulation of 0.5 μM CpG-A for a certain period of time. The in vitro activity of the ligand-drug conjugates was evaluated based on the extent of cytokine inhibition.
(§2) The cryopreserved human peripheral blood mononuclear cells were thawed, resuspended in a complete culture medium and counted, and the cell suspension was adjusted to 2.5×10^6 cells/mL with the culture medium and cultured overnight. […] The supernatant was collected, and the TNF-α and IFN-α concentration levels in the supernatant were detected using an ELISA kit. Dose-response data were fitted to an S-shaped curve using non-linear regression, and IC50 values were calculated.
(§3) TNF-α concentration assay was performed using a Dakewe TNF-α ELISA kit (Cat. No. 1117202). […] The reading at wavelength 450 nm was detected using an M2e instrument within 10 min after the termination. […]

Test [2] shares this test system. Briefly: Inhibition of R848-induced TNF-α production from human peripheral blood mononuclear cells by BDCA2-ADC. In kind it is cell-based. The settings on record: 5 μM R848, 24 h. How it is done:
as §1, with “TLR7/8” for “TLR9”, “R848.” for “CpG-A.”, “5” for “0.5”, “R848” for “CpG-A”
as §2, §3

Turning to “BIIB059: reference antibody specifically binding to BDCA2, sequence derived from U.S. Pat. No. 9,902,775B2; SEQ ID NO: 25 and 26 [reference compound]”, the “inhibitory effect on TNF-α secretion” value in test [1] and in test [2] was “did not have an inhibitory effect” each time.
